Test results reported in article PMC11111895, “Identification of a dCache-type chemoreceptor in Campylobacter jejuni that specifically mediates chemotaxis towards methyl pyruvate” (Frontiers in Microbiology, 2024).
Like-named read-outs stand apart in the source and are kept apart here.

Tests used:
Tlp11-LBD [1] = test: Microscale thermophoresis (MST) of Tlp11-LBD; assay type: binding, C. jejuni ATCC 33560; details: for Kd: 250 nM protein
Protocol: The His-tag dye (MO-L018 RED-tris-NTA, NanoTemper, Germany) was adjusted to a final concentration of 25 nM and used to label the purified protein with a His-tag. The compound was diluted to a series of concentrations in phosphate-buffered saline ([Duan et al., 2023]) with 0.05% Tween 20 (PBS-T) buffer and mixed in a ratio of 1:1 with protein. The mixtures were loaded into capillaries (Monolith™ Series capillaries, NanoTemper) by means of capillary action. Thermophoresis was measured using a Monolith™ NT.115 (NanoTemper) instrument, with 40% excitation and 40% MST power configuration. The time-traces of changes in fluorescence, which reflected the thermophoretic movement of labeled protein affected by different concentrations of compound were recorded, and the dose–response curves were fitted with the ‘temperature jump and thermophoresis’ mode. Data analysis was performed using MO. Affinity Analysis version 2.3 (NanoTemper) and Prism version 8.0.2 (GraphPad Software, United States).
MST quantifies interaction affinities by detecting the direct movement of fluorescent molecules along temperature gradients in capillaries. Ligand binding changes the thermophoretic movement of proteins, which can be used to derive Kds, by sequentially scanning capillaries with different ligand concentrations. MST has been applied to the study of weak binding systems and validated to provide reliable results ([Linke et al., 2016]; [Gao et al., 2021]). […] We also tested the binding abilities of methyl pyruvate analogues to Tlp11-LBD using MST (Supplementary Table S3).

[2] = test system: C. jejuni 11168ΩTlp11/ΔCheY; assay type: cell-based, Campylobacter jejuni
[3] = test system: C. jejuni NCTC 11168ΩTlp11 cells; assay type: cell-based, Campylobacter jejuni
[4] = test system: C. jejuni WT NCTC 11168 cells; assay type: cell-based, Campylobacter jejuni
Tlp11-LBD [5] = test system: Tlp11-LBD; design: method as in Day et al., 2016; details: ref Day et al., 2016; cited from earlier work
H. pylori = test system: H. pylori; design: method as in Matilla and Krell, 2023; Zhou et al., 2023; details: increase from 25 upon combination with amoxicillin and clarithromycin, clinical studies, ref Matilla and Krell, 2023, Zhou et al.; cited from earlier work
C. jejuni ATCC 33560 = test: Growth curves in Minimal Essential Medium; assay type: cell-based, Campylobacter jejuni; details: Minimal Essential Medium with fetal bovine serum, shaking; methyl pyruvate at concentrations above 1 mM
Protocol: The C. jejuni ATCC 33560, C. jejuni WT NCTC 11168 and 11168ΩTlp11 cells were grown on a MH agar plate overnight, at 37°C, under microaerobic conditions. The colonies were suspended in PBS ([Duan et al., 2023]), pH 7.2, inoculated into Minimal Essential Medium broth (Life Technologies) containing 10% fetal bovine serum to an initial OD600 of 0.01, and grown at 37°C, 100 rpm, under microaerobic conditions. When required, Minimal Essential Medium was supplemented with different concentrations of methyl pyruvate or pyruvate (both from Macklin, China).

[6] = test system: Tlp11[1-342]-Tar[200-553] (Tlp342Tar200); test: Microfluidic chemotaxis of E. coli expressing hybrid chemoreceptor Tlp342Tar200; assay type: cell-based, E. coli VS188; details: for effect on chemotaxis towards methyl pyruvate of E. coli with Tlp342Tar200 / effect on responses to glucose of E. coli with Tlp342Tar200: cells incubated in 10 mM compound; for chemotactic response of E. coli expressing Tlp342Tar200 as the sole receptor: microfluidic device, 50 min
Protocol: The E. coli cells expressing hybrid chemoreceptor and GFP were grown in tryptone broth, up to an OD600 of 0.55, at 34°C, with shaking at 250 rpm. The cells were harvested by means of centrifugation at 5,000 rpm, washed twice with Tethering Buffer (10 mM KH2PO4, 10 mM K2HPO4, and 0.1 mM EDTA, pH 7.0), and resuspended in Tethering Buffer such that an OD600 of 5.5 was attained. The chemotactic responses of E. coli cells to the compounds were measured using a microfluidic device ([Si et al., 2012]). The collected E. coli cells were added to the sink pores of the device and allowed to freely diffuse into the observation channel for 40 min. Subsequently, the compound solution was added to the source pores, to establish a concentration gradient gradually in the observation channel of the device. Fluorescence intensity in the observation channel was detected using an LSM 800 laser scanning confocal microscope (Zeiss, Germany). Data were analyzed using ImageJ software.
To determine whether methyl pyruvate stimulates transmembrane signaling through Tlp11-LBD, we fused C. jejuni ATCC 33560 Tlp11-LBD with the cytoplasmic region of the E. coli chemoreceptor Tar to construct Tlp11-Tar hybrid chemoreceptors (Figure 3A). Five hybrid receptors with different fusion positions in the second transmembrane helix (TM2) were obtained: Tlp11[1-342]-Tar[200-553] (Tlp342Tar200), Tlp11[1-343]-Tar[200-553] (Tlp343Tar200), Tlp11[1-346]-Tar[204-553] (Tlp346Tar204), Tlp11[1-347]-Tar[204-553] (Tlp347Tar204), and Tlp11[1-348]-Tar[204-553] (Tlp348Tar204) (Supplementary Figure S5A). To verify the activities of these hybrid chemoreceptors, we expressed each protein as a chimera in green fluorescent protein (GFP)-labeled E. coli VS188 without any other chemoreceptors, such that each hybrid receptor served as the only chemoreceptor in the E. coli. […] These chemotactic responses triggered by glucose through the phosphotransferase system are independent of the chemoreceptor LBD ([Neumann et al., 2012]). […] Thus, we used this hybrid receptor for subsequent chemotaxis measurements.

[7] = methyl pyruvate at pH 7.0, read-out: Kd of Tlp11-LBD binding

Work on `CCOC(=O)C(C)=O` [ethyl pyruvate, Ethyl pyruvate] yielded a Kd (Tlp11-LBD [1]; read-out: Kd of Tlp11-LBD binding) of 2360 ± 170 µM.

With `O=CO` [formate] the chemotactic response [2] was “no chemotaxis”, the chemotactic response [3] was “attractant response” and the chemotactic response [4] was “attractive response”.

For `O=C[C@H](O)[C@@H](O)[C@@H](O)[C@H](O)CO` [galactose], the “binding to Tlp11-LBD” value (Tlp11-LBD [5]) is listed as “bound directly”.

In the case of `COc1ccc2[nH]c([S+]([O-])Cc3ncc(C)c(OC)c3C)nc2c1` (centres unmarked) [omeprazole], the “eradication rate of H. pylori” value (H. pylori) is listed as 95%.

With `CC(=O)C(=O)O` [pyruvate, Pyruvate] the “binding to Tlp11-LBD” value (Tlp11-LBD [1]; maximum concentration 2.5 mM) was “did not bind” and the “effect on growth of C. jejuni ATCC 33560” value (C. jejuni ATCC 33560) was “promotion of the growth”.

With `c1ccc2ncccc2c1` [quinoline, Quinoline] the Kd (Tlp11-LBD [1]; [7]) was 905 ± 180 µM, the “effect on chemotaxis towards methyl pyruvate of E. coli with Tlp342Tar200” value [6] was “lost the chemotaxis towards methyl pyruvate” and the “effect on responses to glucose of E. coli with Tlp342Tar200” value [6] was “not affected”. The “chemotactic response of E. coli expressing Tlp342Tar200 as the sole receptor” value [6] was “failed to elicit a chemotactic response”, the chemotactic response [3] was “neither WT NCTC 11168 nor 11168ΩTlp11 cells exhibited chemotaxis” and the chemotactic response [4] was “neither WT NCTC 11168 nor 11168ΩTlp11 cells exhibited chemotaxis”.

With `Cc1ccccc1` [toluene, Toluene] the Kd (Tlp11-LBD [1]; [7]) was 844 ± 172 µM, the “effect on chemotaxis towards methyl pyruvate of E. coli with Tlp342Tar200” value [6] was “lost the chemotaxis towards methyl pyruvate” and the “effect on responses to glucose of E. coli with Tlp342Tar200” value [6] was “not affected”. For the same compound, the “chemotactic response of E. coli expressing Tlp342Tar200 as the sole receptor” value [6] was “failed to elicit a chemotactic response”, the chemotactic response ([3]; 11168ΩTlp11 cells, microfluidic device, 30 min) was “neither WT NCTC 11168 nor 11168ΩTlp11 cells exhibited chemotaxis” and the chemotactic response ([4]; WT NCTC 11168 cells, microfluidic device, 30 min) was “neither WT NCTC 11168 nor 11168ΩTlp11 cells exhibited chemotaxis”.
